Assay results taken from ChEMBL document CHEMBL4476874, “Compounds for the modulation of myc activity” (2018).

Assays:
[1] = molecular target: Myc proto-oncogene protein (Homo sapiens, UniProt P01106); test: Inhibition of human c-Myc assessed as reduction in c-Myc/Max/Ebox DNA complex formation using pre-formed complex of c-Myc and biotinylated DNA containing single Ebox-sequence followed by compound addition and further addition of his6-tagged c-Max and incubated for 2 hrs by AlphaScreen assay
NCI-H2171 = test: Antiproliferative activity against human NCI-H2171 cells after 72 hrs by ATPlite assay; format: functional, cell-based; conditions: NCI-H2171, 72 h

Chain of Myc proto-oncogene protein (P01106 whole entry): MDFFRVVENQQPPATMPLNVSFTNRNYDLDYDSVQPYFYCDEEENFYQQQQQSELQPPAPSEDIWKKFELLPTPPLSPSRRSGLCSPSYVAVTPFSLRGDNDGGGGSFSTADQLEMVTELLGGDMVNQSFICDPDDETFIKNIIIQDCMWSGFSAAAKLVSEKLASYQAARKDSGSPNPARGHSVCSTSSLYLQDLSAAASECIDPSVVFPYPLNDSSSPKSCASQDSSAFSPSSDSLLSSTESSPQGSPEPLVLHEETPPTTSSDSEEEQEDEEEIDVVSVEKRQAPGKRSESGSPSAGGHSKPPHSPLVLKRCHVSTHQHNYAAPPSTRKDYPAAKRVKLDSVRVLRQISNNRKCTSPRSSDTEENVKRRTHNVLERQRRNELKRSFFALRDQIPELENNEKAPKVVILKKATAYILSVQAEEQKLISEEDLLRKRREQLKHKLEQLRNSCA

Row | Compound | IC50 [1] [nM] | IC50 (NCI-H2171) [nM]
1 | O=C(CCNC1CC1)Nc1sc2c(c1-c1nc3ccccc3s1)CCNC2 | 300 to 1000 | < 300
2 | CCN(CC)CCC(=O)Nc1sc2c(c1-c1nc3ccccc3s1)CCNC2 | 300 to 1000 | < 300
3 | COCCNCCC(=O)Nc1sc2c(c1-c1nc3c(N4CC(O)C4)cccc3s1)CCNC2 | < 300 | < 300
4 | CC(=O)Nc1sc2c(c1-c1nc3ccc(-c4cnn(C)c4)cc3s1)CCNC2 | 300 to 1000 | 300 to 1000
5 | CC(=O)Nc1sc2c(c1-c1nc3cc(-c4ccncc4)ccc3s1)CCNC2 | 300 to 1000 | < 300
6 | COCCNCCC(=O)Nc1sc2c(c1-c1nc3c(Nc4ccccc4)cccc3s1)CCNC2 | > 10000 | 300 to 1000
7 | O=C(CCNC1C2CC1C2)Nc1sc2c(c1-c1nc3ccccc3s1)CCNC2 (stereo not given) | 1000 to 10000 | 300 to 1000
8 | CC(=O)Nc1sc2c(c1-c1nc3cc(-c4cnn(C)c4)ccc3s1)CCNC2 | 300 to 1000 | < 300
9 | O=C(CCN1CCOCC1)Nc1sc2c(c1-c1nc3ccccc3s1)CCNC2 | 1000 to 10000 | 300 to 1000

The next lines start with the values.

Row | IC50 [1] [nM] | IC50 (NCI-H2171) [nM] | Compound
10 | > 10000 | < 300 | CC(C)NCCC(=O)Nc1sc2c(c1-c1nc3cc(SC4CCCC4)ccc3s1)CCNC2
11 | 300 to 1000 | < 300 | CC(C)NCCC(=O)Nc1sc2c(c1-c1nc3cc(S(=O)(=O)c4ccccc4)ccc3s1)CCNC2
12 | 1000 to 10000 | < 300 | CC(C)NCCC(=O)Nc1sc2c(c1-c1nc3cc(Sc4ccccn4)ccc3s1)CCNC2
13 | > 10000 | 300 to 1000 | CC(C)NCCC(=O)Nc1sc2c(c1-c1nc3cc(Sc4ccccc4)ccc3s1)CCNC2
14 | > 10000 | < 300 | Cc1cc(-c2ccc3sc(-c4c(NC(=O)CCNC(C)C)sc5c4CCNC5)nc3c2)cc(C)n1
15 | 300 to 1000 | < 300 | CC(C)NCCC(=O)Nc1sc2c(c1-c1nc3cc(S(=O)(=O)C4CCCC4)ccc3s1)CCNC2
